# ChEMBL document CHEMBL1275476, “Emergence of macrolide resistance gene mph(B) in Streptococcus uberis and cooperative effects with rdmC-like gene” (2008)
# Columns and labels:
# Assay type in all cases: functional
# Streptococcus uberis [1] = test: Antimicrobial activity against Streptococcus uberis UCN60 expressing mph(B) and rdmC-like genes by broth microdilution method
# Streptococcus uberis [2] = test: Antimicrobial activity against Streptococcus uberis UCN61 by broth microdilution method
# Escherichia coli [3] = test: Antimicrobial activity against Escherichia coli AG100A harboring pAT392 containing rdmC-like gene by broth microdilution method
# Escherichia coli [4] = test: Antimicrobial activity against Escherichia coli AG100A harboring pAT392 containing mph(B) gene by broth microdilution method
# Escherichia coli [5] = test: Antimicrobial activity against Escherichia coli AG100A harboring pAT392 containing mph(B) and rdmC-like genes by broth microdilution method
# Staphylococcus aureus [6] = test: Antimicrobial activity against Staphylococcus aureus RN4220 harboring pAT392 containing rdmC-like gene by broth microdilution method
# Staphylococcus aureus [7] = test: Antimicrobial activity against Staphylococcus aureus RN4220 harboring pAT392 containing mph(B) gene by broth microdilution method
# Staphylococcus aureus [8] = test: Antimicrobial activity against Staphylococcus aureus RN4220 harboring pAT392 containing mph(B) and rdmC-like genes by broth microdilution method
# Enterococcus faecalis [9] = test: Antimicrobial activity against Enterococcus faecalis JH2-2 harboring pAT392 containing rdmC-like gene by broth microdilution method
# Enterococcus faecalis [10] = test: Antimicrobial activity against Enterococcus faecalis JH2-2 harboring pAT392 containing mph(B) gene by broth microdilution method
# Enterococcus faecalis [11] = test: Antimicrobial activity against Enterococcus faecalis JH2-2 harboring pAT392 containing mph(B) and rdmC-like gene by broth microdilution method
# Escherichia coli [12] = test: Antimicrobial activity against Escherichia coli AG100A harboring empty vector by broth microdilution method
# Staphylococcus aureus [13] = test: Antimicrobial activity against Staphylococcus aureus RN4220 harboring empty vector by broth microdilution method
# Enterococcus faecalis [14] = test: Antimicrobial activity against Enterococcus faecalis JH2-2 harboring empty vector by broth microdilution method
Molecule,MIC (Streptococcus uberis [1]) [µg/mL],MIC (Streptococcus uberis [2]) [µg/mL],MIC (Escherichia coli [3]) [µg/mL],MIC (Escherichia coli [4]) [µg/mL],MIC (Escherichia coli [5]) [µg/mL],MIC (Staphylococcus aureus [6]) [µg/mL],MIC (Staphylococcus aureus [7]) [µg/mL],MIC (Staphylococcus aureus [8]) [µg/mL],MIC (Enterococcus faecalis [9]) [µg/mL],MIC (Enterococcus faecalis [10]) [µg/mL],MIC (Enterococcus faecalis [11]) [µg/mL],MIC (Escherichia coli [12]) [µg/mL],MIC (Staphylococcus aureus [13]) [µg/mL],MIC (Enterococcus faecalis [14]) [µg/mL]
CC[C@H]1OC(=O)[C@H](C)[C@@H](O[C@H]2C[C@@](C)(OC)[C@@H](O)[C@H](C)O2)[C@H](C)[C@@H](O[C@@H]2O[C@H](C)C[C@H](N(C)C)[C@H]2O)[C@](C)(O)C[C@@H](C)CN(C)[C@H](C)[C@@H](O)[C@]1(C)O [AZITHROMYCIN],0.12,0.12,–,–,–,–,–,–,–,–,–,–,–,–
CCC[C@@H]1C[C@@H](C(=O)N[C@@H]([C@H]2O[C@H](SC)[C@H](O)[C@@H](O)[C@H]2O)[C@H](C)Cl)N(C)C1 [CLINDAMYCIN],0.03,0.03,2,2,2,0.06,0.06,0.06,2,2,2,2,0.06,2
CC[C@H]1OC(=O)[C@H](C)[C@@H](O[C@H]2C[C@@](C)(OC)[C@@H](O)[C@H](C)O2)[C@H](C)[C@@H](O[C@@H]2O[C@H](C)C[C@H](N(C)C)[C@H]2O)[C@](C)(O)C[C@@H](C)C(=O)[C@H](C)[C@@H](O)[C@]1(C)O [ERYTHROMYCIN],0.06,0.06,2,64,64,0.25,0.25,0.25,0.25,0.25,0.25,2,0.25,0.25
CO[C@@H]1[C@@H](O[C@@H]2O[C@H](C)[C@@H](O[C@H]3C[C@@](C)(O)[C@@H](OC(=O)CC(C)C)[C@H](C)O3)[C@H](N(C)C)[C@H]2O)[C@@H](CC=O)C[C@@H](C)[C@@H](O)/C=C/C=C/C[C@@H](C)OC(=O)C[C@H]1OC(C)=O [JOSAMYCIN],0.25,0.25,8,16,16,1,1,1,1,1,1,8,1,1
CC[C@H]1OC(=O)C[C@@H](O)[C@H](C)[C@@H](O[C@@H]2O[C@H](C)[C@@H](O[C@H]3C[C@@](C)(O)[C@@H](O)[C@H](C)O3)[C@H](N(C)C)[C@H]2O)[C@@H](CC=O)C[C@@H](C)C(=O)/C=C/C(C)=C/[C@@H]1CO[C@@H]1O[C@H](C)[C@@H](O)[C@@H](OC)[C@H]1OC [TYLOSIN],0.5,0.5,16,128,> 128,1,1,16,1,1,16,16,1,1
SPIRAMYCIN,8,0.5,200,400,1000,4,8,32,2,8,64,8,4,0.5
